Test results taken from the kinase profiling compilation of Christmann-Franck et al. (2016).

What was measured:
PIM2 (human) [1] = target: PIM2 (human) (UniProt Q9P1W9); experiment: SelectScreen, TR FRET
PIM1 (human) [2] = target: PIM1 (human) (UniProt P11309); experiment: SelectScreen, TR FRET
AAK1 (human) = AAK1 (human) (UniProt Q2M2I8); experiment: KINOMEscan competition binding; details: compound 10.0 µM
PIP4K2B (human) = PIP4K2B (human) (UniProt P78356); experiment: KINOMEscan competition binding; details: compound 10.0 µM
CLK1 (human) = CLK1 (human) (UniProt P49759); experiment: KINOMEscan competition binding; details: compound 10.0 µM
PIM2 (human) [3] = target: PIM2 (human) (UniProt Q9P1W9); experiment: KINOMEscan competition binding; details: compound 10.0 µM
BMPR1B (human) = BMPR1B (human) (UniProt O00238); experiment: KINOMEscan competition binding; details: compound 10.0 µM
MAP2K2 (human) = MAP2K2 (human) (UniProt P36507); experiment: KINOMEscan competition binding; details: compound 10.0 µM
PLK4 (human) = PLK4 (human) (UniProt O00444); experiment: KINOMEscan competition binding; details: compound 10.0 µM
GAK (human) = GAK (human) (UniProt O14976); experiment: KINOMEscan competition binding; details: compound 10.0 µM
CLK2 (human) = CLK2 (human) (UniProt P49760); experiment: KINOMEscan competition binding; details: compound 10.0 µM
DAPK2 (human) = DAPK2 (human) (UniProt Q9UIK4); experiment: KINOMEscan competition binding; details: compound 10.0 µM
MAPKAPK5 (human) = MAPKAPK5 (human) (UniProt Q8IW41); experiment: KINOMEscan competition binding; details: compound 10.0 µM
STK17A (human) = STK17A (human) (UniProt Q9UEE5); experiment: KINOMEscan competition binding; details: compound 10.0 µM
RPS6KA4 KD2 (human) = RPS6KA4 KD2 (human) (UniProt O75676); experiment: KINOMEscan competition binding; details: compound 10.0 µM
CDK16 (human) = CDK16 (human) (UniProt Q00536); experiment: KINOMEscan competition binding; details: compound 10.0 µM
[4] = target: TYK2 JH2 pseudokinase (human) (UniProt P29597); experiment: KINOMEscan competition binding; details: compound 10.0 µM
PIK3CG (human) = PIK3CG (human) (UniProt P48736); experiment: KINOMEscan competition binding; details: compound 10.0 µM
DAPK1 (human) = DAPK1 (human) (UniProt P53355); experiment: KINOMEscan competition binding; details: compound 10.0 µM
CLK4 (human) = CLK4 (human) (UniProt Q9HAZ1); experiment: KINOMEscan competition binding; details: compound 10.0 µM
ROCK2 (human) = ROCK2 (human) (UniProt O75116); experiment: KINOMEscan competition binding; details: compound 10.0 µM
RPS6KA1 KD2 (human) = RPS6KA1 KD2 (human) (UniProt Q15418); experiment: KINOMEscan competition binding; details: compound 10.0 µM
STK24 (human) = STK24 (human) (UniProt Q9Y6E0); experiment: KINOMEscan competition binding; details: compound 10.0 µM
MKNK2 (human) = MKNK2 (human) (UniProt Q9HBH9); experiment: KINOMEscan competition binding; details: compound 10.0 µM
DAPK3 (human) = DAPK3 (human) (UniProt O43293); experiment: KINOMEscan competition binding; details: compound 10.0 µM
STK17B (human) = STK17B (human) (UniProt O94768); experiment: KINOMEscan competition binding; details: compound 10.0 µM
CSNK2A2 (human) = CSNK2A2 (human) (UniProt P19784); experiment: KINOMEscan competition binding; details: compound 10.0 µM
TAOK1 (human) = TAOK1 (human) (UniProt Q7L7X3); experiment: KINOMEscan competition binding; details: compound 10.0 µM
HIPK1 (human) = HIPK1 (human) (UniProt Q86Z02); experiment: KINOMEscan competition binding; details: compound 10.0 µM
RIOK2 (human) = RIOK2 (human) (UniProt Q9BVS4); experiment: KINOMEscan competition binding; details: compound 10.0 µM
CAMKK1 (human) = CAMKK1 (human) (UniProt Q8N5S9); experiment: KINOMEscan competition binding; details: compound 10.0 µM
TLK1 (human) = TLK1 (human) (UniProt Q9UKI8); experiment: KINOMEscan competition binding; details: compound 10.0 µM
[5] = target: JAK1 JH2 pseudokinase (human) (UniProt P23458); experiment: KINOMEscan competition binding; details: compound 10.0 µM
MYLK3 (human) = MYLK3 (human) (UniProt Q32MK0); experiment: KINOMEscan competition binding; details: compound 10.0 µM
PIM1 (human) [6] = target: PIM1 (human) (UniProt P11309); experiment: KINOMEscan competition binding; details: compound 10.0 µM
RPS6KA2 KD2 (human) = RPS6KA2 KD2 (human) (UniProt Q15349); experiment: KINOMEscan competition binding; details: compound 10.0 µM
MAP2K3 (human) = MAP2K3 (human) (UniProt P46734); experiment: KINOMEscan competition binding; details: compound 10.0 µM
RPS6KA6 KD2 (human) = RPS6KA6 KD2 (human) (UniProt Q9UK32); experiment: KINOMEscan competition binding; details: compound 10.0 µM
MAPK15 (human) = MAPK15 (human) (UniProt Q8TD08); experiment: KINOMEscan competition binding; details: compound 10.0 µM
TAOK3 (human) = TAOK3 (human) (UniProt Q9H2K8); experiment: KINOMEscan competition binding; details: compound 10.0 µM
CDK7 (human) = CDK7 (human) (UniProt P50613); experiment: KINOMEscan competition binding; details: compound 10.0 µM
PIM3 (human) = PIM3 (human) (UniProt Q86V86); experiment: KINOMEscan competition binding; details: compound 10.0 µM
RIPK4 (human) = RIPK4 (human) (UniProt P57078); experiment: KINOMEscan competition binding; details: compound 10.0 µM
CLK3 (human) = CLK3 (human) (UniProt P49761); experiment: KINOMEscan competition binding; details: compound 10.0 µM
MYLK (human) = MYLK (human) (UniProt Q15746); experiment: KINOMEscan competition binding; details: compound 10.0 µM
CSNK2A1 (human) = CSNK2A1 (human) (UniProt P68400); experiment: KINOMEscan competition binding; details: compound 10.0 µM
MAP3K7 (human) = MAP3K7 (human) (UniProt O43318); experiment: KINOMEscan competition binding; details: compound 10.0 µM

Sequence of PIM2 (human) (Q9P1W9 whole entry, looked up): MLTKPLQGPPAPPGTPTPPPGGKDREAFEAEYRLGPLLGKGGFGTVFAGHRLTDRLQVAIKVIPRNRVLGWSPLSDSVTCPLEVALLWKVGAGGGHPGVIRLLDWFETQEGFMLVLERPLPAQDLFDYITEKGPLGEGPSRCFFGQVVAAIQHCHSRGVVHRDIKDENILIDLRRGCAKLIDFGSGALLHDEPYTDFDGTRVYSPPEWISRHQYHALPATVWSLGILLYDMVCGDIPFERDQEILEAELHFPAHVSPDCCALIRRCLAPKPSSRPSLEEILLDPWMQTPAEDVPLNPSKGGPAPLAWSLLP
Sequence of PIM1 (human) (P11309 whole entry, looked up): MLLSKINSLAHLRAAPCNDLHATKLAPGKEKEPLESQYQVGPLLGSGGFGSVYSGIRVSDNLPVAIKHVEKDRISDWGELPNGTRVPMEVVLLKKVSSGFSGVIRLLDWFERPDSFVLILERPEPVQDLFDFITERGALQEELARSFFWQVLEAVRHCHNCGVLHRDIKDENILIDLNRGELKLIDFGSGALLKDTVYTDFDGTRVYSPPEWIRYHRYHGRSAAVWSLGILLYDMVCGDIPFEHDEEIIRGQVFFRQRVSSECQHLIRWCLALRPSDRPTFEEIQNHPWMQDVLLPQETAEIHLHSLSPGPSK
Sequence of JAK1 JH2 pseudokinase (human) (P23458 whole entry, looked up): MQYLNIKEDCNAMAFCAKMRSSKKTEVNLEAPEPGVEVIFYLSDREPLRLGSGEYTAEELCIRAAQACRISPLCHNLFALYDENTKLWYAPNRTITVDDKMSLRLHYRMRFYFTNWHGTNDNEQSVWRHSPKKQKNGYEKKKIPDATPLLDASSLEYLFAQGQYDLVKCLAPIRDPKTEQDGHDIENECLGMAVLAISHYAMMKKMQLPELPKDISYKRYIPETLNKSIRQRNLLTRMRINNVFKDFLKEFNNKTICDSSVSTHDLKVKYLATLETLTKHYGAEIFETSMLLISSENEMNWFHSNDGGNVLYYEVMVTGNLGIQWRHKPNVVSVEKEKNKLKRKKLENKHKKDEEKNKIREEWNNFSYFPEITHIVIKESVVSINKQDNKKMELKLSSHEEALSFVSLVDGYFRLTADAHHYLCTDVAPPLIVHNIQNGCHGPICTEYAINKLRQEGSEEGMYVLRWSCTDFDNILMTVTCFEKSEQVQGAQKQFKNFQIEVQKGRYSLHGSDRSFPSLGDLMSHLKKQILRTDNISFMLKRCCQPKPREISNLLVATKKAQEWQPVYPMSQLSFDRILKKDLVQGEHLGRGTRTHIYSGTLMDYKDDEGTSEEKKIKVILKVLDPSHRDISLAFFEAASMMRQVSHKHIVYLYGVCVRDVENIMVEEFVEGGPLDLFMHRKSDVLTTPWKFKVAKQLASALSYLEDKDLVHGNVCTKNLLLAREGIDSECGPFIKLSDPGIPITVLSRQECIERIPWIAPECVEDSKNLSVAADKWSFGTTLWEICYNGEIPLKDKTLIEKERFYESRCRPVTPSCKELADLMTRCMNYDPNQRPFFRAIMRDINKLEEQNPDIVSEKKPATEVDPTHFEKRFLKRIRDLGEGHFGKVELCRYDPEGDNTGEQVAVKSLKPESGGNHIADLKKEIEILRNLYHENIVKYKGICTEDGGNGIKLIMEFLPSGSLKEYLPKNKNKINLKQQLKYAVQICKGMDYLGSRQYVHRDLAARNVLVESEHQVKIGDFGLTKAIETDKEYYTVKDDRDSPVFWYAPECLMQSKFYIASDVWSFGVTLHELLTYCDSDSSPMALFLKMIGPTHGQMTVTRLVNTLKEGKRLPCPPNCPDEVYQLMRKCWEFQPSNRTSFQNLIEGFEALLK
Sequence of MYLK3 (human) (Q32MK0 whole entry, looked up): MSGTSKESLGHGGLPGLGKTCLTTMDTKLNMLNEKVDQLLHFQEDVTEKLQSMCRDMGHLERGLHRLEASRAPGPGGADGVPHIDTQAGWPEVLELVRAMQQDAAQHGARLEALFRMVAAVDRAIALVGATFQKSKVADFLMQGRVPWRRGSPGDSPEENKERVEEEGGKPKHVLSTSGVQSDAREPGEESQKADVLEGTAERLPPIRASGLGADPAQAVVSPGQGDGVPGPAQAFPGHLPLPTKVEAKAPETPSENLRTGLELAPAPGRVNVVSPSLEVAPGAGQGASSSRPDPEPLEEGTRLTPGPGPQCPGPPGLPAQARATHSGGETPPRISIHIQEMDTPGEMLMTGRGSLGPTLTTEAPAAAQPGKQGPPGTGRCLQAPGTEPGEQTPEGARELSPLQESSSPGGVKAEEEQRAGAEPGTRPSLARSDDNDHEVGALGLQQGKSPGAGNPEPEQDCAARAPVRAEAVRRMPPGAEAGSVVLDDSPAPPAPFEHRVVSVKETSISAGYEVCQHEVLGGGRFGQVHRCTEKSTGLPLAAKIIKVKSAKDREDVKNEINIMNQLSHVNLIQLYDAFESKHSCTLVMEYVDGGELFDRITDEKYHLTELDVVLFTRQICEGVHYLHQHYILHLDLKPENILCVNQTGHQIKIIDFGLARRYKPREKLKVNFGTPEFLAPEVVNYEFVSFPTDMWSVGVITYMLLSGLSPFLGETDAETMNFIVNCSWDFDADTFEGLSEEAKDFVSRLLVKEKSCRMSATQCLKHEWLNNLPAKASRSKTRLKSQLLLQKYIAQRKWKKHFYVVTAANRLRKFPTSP
Sequence of CSNK2A1 (human) (P68400 whole entry, looked up): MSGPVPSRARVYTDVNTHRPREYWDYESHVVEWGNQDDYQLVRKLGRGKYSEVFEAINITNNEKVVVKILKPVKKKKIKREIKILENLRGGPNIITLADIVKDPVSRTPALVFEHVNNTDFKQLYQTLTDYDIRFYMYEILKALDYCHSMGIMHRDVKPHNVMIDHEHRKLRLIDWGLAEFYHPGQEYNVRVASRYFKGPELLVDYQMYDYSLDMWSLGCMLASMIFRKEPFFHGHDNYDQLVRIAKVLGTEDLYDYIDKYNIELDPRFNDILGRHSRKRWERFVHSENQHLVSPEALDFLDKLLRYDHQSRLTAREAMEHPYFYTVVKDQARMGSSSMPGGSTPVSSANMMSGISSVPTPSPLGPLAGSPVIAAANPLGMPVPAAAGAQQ
Sequence of TAOK1 (human) (Q7L7X3 whole entry, looked up): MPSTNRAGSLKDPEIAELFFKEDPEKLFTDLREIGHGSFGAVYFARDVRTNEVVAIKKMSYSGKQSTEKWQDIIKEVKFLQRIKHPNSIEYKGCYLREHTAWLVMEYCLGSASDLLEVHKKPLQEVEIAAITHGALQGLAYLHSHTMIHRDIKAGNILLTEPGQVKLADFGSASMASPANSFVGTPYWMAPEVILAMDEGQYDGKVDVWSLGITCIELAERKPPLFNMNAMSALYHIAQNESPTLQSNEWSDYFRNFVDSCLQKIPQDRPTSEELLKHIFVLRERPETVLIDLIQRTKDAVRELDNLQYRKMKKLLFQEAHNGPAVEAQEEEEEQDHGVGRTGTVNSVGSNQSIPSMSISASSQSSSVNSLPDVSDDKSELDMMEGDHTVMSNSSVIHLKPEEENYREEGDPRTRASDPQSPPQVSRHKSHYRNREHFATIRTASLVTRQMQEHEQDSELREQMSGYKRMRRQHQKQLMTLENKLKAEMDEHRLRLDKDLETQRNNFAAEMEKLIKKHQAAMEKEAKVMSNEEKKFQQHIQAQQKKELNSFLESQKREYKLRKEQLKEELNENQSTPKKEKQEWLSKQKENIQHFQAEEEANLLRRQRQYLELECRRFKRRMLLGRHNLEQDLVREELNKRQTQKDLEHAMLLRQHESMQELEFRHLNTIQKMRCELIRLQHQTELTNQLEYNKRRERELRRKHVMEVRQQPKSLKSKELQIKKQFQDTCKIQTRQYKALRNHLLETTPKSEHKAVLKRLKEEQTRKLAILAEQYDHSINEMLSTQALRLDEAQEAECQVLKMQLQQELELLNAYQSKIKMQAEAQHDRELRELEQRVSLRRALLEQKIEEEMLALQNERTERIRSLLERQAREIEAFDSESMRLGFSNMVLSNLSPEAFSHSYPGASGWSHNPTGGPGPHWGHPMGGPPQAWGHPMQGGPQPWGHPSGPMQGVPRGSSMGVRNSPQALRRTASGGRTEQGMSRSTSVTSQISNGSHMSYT
Sequence of CAMKK1 (human) (Q8N5S9 whole entry, looked up): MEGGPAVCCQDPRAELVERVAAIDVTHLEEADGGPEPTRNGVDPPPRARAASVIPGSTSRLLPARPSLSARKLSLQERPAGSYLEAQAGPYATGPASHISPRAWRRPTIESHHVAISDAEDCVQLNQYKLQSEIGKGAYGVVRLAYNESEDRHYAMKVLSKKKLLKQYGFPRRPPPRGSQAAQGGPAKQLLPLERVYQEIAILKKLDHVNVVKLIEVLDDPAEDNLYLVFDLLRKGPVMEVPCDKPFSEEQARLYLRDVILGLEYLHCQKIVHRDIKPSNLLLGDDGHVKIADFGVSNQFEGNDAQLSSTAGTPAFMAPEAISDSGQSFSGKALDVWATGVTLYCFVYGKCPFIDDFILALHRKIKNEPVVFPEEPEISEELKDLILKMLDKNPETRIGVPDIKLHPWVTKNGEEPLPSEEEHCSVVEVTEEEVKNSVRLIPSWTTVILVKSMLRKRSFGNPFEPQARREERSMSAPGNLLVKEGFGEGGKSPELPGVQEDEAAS
Sequence of CDK16 (human) (Q00536 whole entry, looked up): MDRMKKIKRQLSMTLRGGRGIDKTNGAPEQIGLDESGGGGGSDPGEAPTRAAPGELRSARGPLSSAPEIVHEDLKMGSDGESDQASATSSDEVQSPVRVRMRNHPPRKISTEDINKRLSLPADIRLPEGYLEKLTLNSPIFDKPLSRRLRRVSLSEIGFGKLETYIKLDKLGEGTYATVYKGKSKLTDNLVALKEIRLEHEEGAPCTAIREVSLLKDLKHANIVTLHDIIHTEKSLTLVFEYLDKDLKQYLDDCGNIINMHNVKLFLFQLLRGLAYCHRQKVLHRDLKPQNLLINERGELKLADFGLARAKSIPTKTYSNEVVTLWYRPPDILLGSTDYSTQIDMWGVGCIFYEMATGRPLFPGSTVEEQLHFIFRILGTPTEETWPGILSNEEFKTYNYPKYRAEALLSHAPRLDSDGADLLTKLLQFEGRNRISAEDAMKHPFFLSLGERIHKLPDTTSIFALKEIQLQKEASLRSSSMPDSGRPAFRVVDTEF

## N=C1NC(=O)/C(=C/c2ccc(-c3ccc(C(=O)Nc4ccc(N5CCNCC5)cc4)cc3O)o2)S1
PIM2 (human) [1]
  IC50: 144 nM
PIM1 (human) [2]
  IC50: 128 nM
AAK1 (human)
  kinase still bound, per cent of control: 31%
PIP4K2B (human)
  kinase still bound, per cent of control: 34%
CLK1 (human)
  kinase still bound, per cent of control: 2.4%
PIM2 (human) [3]
  kinase still bound, per cent of control: 0.5%
BMPR1B (human)
  kinase still bound, per cent of control: 19%
MAP2K2 (human)
  kinase still bound, per cent of control: 33%
PLK4 (human)
  kinase still bound, per cent of control: 23%
GAK (human)
  kinase still bound, per cent of control: 29%
CLK2 (human)
  kinase still bound, per cent of control: 2%
DAPK2 (human)
  kinase still bound, per cent of control: 14%
MAPKAPK5 (human)
  kinase still bound, per cent of control: 32%
STK17A (human)
  kinase still bound, per cent of control: 0.1%
RPS6KA4 KD2 (human)
  kinase still bound, per cent of control: 3.4%
CDK16 (human)
  kinase still bound, per cent of control: 18%
[4]
  kinase still bound, per cent of control: 10%
PIK3CG (human)
  kinase still bound, per cent of control: 2.1%
DAPK1 (human)
  kinase still bound, per cent of control: 12%
CLK4 (human)
  kinase still bound, per cent of control: 5.8%
ROCK2 (human)
  kinase still bound, per cent of control: 21%
RPS6KA1 KD2 (human)
  kinase still bound, per cent of control: 21%
STK24 (human)
  kinase still bound, per cent of control: 25%
MKNK2 (human)
  kinase still bound, per cent of control: 27%
DAPK3 (human)
  kinase still bound, per cent of control: 15%
STK17B (human)
  kinase still bound, per cent of control: 0.6%
CSNK2A2 (human)
  kinase still bound, per cent of control: 19%
TAOK1 (human)
  kinase still bound, per cent of control: 5.4%
HIPK1 (human)
  kinase still bound, per cent of control: 0.65%
RIOK2 (human)
  kinase still bound, per cent of control: 29%
CAMKK1 (human)
  kinase still bound, per cent of control: 32%
TLK1 (human)
  kinase still bound, per cent of control: 14%
[5]
  kinase still bound, per cent of control: 26%
MYLK3 (human)
  kinase still bound, per cent of control: 15%
PIM1 (human) [6]
  kinase still bound, per cent of control: 5.6%
RPS6KA2 KD2 (human)
  kinase still bound, per cent of control: 25%
MAP2K3 (human)
  kinase still bound, per cent of control: 30%
RPS6KA6 KD2 (human)
  kinase still bound, per cent of control: 27%
MAPK15 (human)
  kinase still bound, per cent of control: 0.95%
TAOK3 (human)
  kinase still bound, per cent of control: 7.4%
CDK7 (human)
  kinase still bound, per cent of control: 3.2%
PIM3 (human)
  kinase still bound, per cent of control: 9%
RIPK4 (human)
  kinase still bound, per cent of control: 5.5%
CLK3 (human)
  kinase still bound, per cent of control: 25%
MYLK (human)
  kinase still bound, per cent of control: 32%
CSNK2A1 (human)
  kinase still bound, per cent of control: 20%
MAP3K7 (human)
  kinase still bound, per cent of control: 8.6%
